This is an account of results in ChEMBL document CHEMBL5260853, “Small Molecules Targeting Activated Cdc42-Associated Kinase 1 (ACK1/TNK2) for the Treatment of Cancers” (J Med Chem, 2021).

For assay [1], the target named is T1, Activated CDC42 kinase 1 (Homo sapiens, UniProt Q07912). Briefly: Inhibition of ACK1 (unknown origin).
Target sequence in this assay (Q07912 whole entry): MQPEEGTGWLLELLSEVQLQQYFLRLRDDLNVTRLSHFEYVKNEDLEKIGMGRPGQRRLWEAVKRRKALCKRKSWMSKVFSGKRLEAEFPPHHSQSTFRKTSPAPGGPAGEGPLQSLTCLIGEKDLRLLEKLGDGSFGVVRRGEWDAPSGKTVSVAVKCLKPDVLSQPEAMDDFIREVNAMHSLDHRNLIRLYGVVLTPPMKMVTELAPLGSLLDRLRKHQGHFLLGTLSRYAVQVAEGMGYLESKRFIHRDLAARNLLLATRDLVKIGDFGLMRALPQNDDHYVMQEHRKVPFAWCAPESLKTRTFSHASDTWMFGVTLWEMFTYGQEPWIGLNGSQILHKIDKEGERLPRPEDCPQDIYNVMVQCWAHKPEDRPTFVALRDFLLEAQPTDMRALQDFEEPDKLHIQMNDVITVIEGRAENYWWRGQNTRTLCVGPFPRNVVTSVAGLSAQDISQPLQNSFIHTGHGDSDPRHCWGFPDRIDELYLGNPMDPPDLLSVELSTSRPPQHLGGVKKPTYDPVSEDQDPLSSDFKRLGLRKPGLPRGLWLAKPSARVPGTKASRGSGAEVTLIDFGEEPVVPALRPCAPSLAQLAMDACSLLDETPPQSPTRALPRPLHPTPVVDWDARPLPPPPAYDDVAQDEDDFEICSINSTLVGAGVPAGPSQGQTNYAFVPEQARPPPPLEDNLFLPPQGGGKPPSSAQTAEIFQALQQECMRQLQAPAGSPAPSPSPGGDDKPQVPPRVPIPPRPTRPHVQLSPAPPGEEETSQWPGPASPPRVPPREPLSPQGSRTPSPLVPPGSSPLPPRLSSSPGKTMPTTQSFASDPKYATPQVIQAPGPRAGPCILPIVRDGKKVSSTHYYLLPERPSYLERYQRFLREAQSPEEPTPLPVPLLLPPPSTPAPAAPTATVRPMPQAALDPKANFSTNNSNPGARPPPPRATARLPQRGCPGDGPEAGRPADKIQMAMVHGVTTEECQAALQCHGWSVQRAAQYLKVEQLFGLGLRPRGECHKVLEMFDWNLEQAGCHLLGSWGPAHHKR
The nature of assay [2]: Inhibition of ACK1 D163E mutant in mouse BaF3 cells. In kind it is cell-based.
The nature of assay [3]: Inhibition of ACK1 R806Q mutant in mouse BaF3 cells. In kind it is cell-based.
The target of assay [4] is T1, Activated CDC42 kinase 1. Briefly: Inhibition of ACK1 (unknown origin) at 10 uM relative to control.
Target sequence in this assay (Q07912 whole entry, looked up): as the sequence (Q07912 whole entry) above
Assay [5] has as its system MDA-MB-157. Briefly: Antiproliferative activity against human MDA-MB-157 cells treated for 96 hrs by trypan blue exclusion assay. To be noted: MDA-MB-157, 96 h. It counts as functional, cell-based.

On to `CNc1cc2c(Nc3cccc(Br)c3)ncnc2cn1`, for which the IC50 (as a rule, the point on the concentration scale where inhibition reaches its midpoint) in assay [1] stood at 200 nM.

As to `CN1c2ccccc2C(=O)Nc2cnc(Nc3ccc(N4CCC(O)CC4)cc3)nc21`, the IC50 in assay [2] worked out at 16 nM; in assay [3] it was 77 nM. `CN1CC[C@H](c2c(O)cc(O)c3c(=O)cc(-c4ccccc4Cl)oc23)[C@H](O)C1` [ALVOCIDIB] had a half-maximal inhibitory concentration (IC50) in assay [1] below 20000 nM. Besides, in assay [4], the inhibition (commonly the percentage by which the read-out fell short of the control) came out at 74%. Regarding `CN1CCN(c2ccc(Nc3ncc(Cl)c(NC[C@H]4CCCO4)n3)cc2)CC1`, it took 480 nM to reach half-maximal inhibition in assay [5] (IC50). In the case of `Cc1cc(Nc2ncc(Cl)c(Nc3ccccc3S(=O)(=O)C(C)C)n2)c(OC(C)C)cc1C1CCNCC1` [CERITINIB], inhibition in assay [1] was half-maximal at 33.6 nM (IC50).

Regarding `CCN(CC)CCNC(=O)c1c(C)[nH]c(/C=C2\C(=O)Nc3ccc(F)cc32)c1C`, in assay [4], the inhibition is 33%.

As for `C=CC(=O)Nc1cc(Nc2nccc(-c3cn(C)c4ccccc34)n2)c(OC)cc1N(C)CCN(C)C` [OSIMERTINIB], half-maximal inhibition in assay [1] (IC50) required 71 nM. Take `Cc1nc(Nc2ncc(C(=O)Nc3c(C)cccc3Cl)s2)cc(N2CCN(CCO)CC2)n1` [DASATINIB]: the IC50 came to 0.1 nM in assay [2] and 1.3 nM in assay [3]. For `COc1cc(N2CCN(C)CC2)ccc1Nc1ncc2c(n1)N(C)c1ccccc1C(=O)N2` the same measures were 38 nM and 113 nM. `COc1cc2ncnc(Nc3ccc(F)c(Cl)c3)c2cc1OCCCN1CCOCC1`: the inhibition in assay [4] amounted to 77%.
